“Also recorded” adds a separate entry of the source. Peptide text beside a SMILES is read from it. * marks the point of attachment. X1 = COC(=O)CC(N*)C(=O)COc1c(F)cccc1F; Quinaldoyl = O=C(c1ccc2ccccc2n1)*
Legend:
[1] = tested on: single ventricular cardiomyocytes; experiment: Ca2+ handling and cell shortening of cardiomyocytes isolated after ischemia-reperfusion; type: in vivo, rat; settings: 30 min ischemia, 10 days reperfusion; for sarcoplasmic reticulum Ca2+ load: 10 mM caffeine, versus sham-operated; for amplitude of cytosolic Ca2+ transients: 0.5 Hz field stimulation
Procedure: Experiments were carried out on single ventricular cardiomyocytes isolated from rats after 30 minutes of myocardial ischemia followed by 10 days of reperfusion. Cardiomyocytes were loaded with a fluorescent calcium indicator (Fluo4) in order to measure calcium transient evoked by 0.5 Hz field stimulation. Cell shortening was also simultaneously recorded as an index of cardiomyocyte contraction. […] These deleterious effects classically reported by others in similar experimental conditions Under TRP601 or QV-D-oph treatment Ca^2+ transients amplitude was unchanged B. Similarly, Ca^2+ release kinetics estimated by the amplitude/time to peak (TT) ratio was slowed down in cardiomyocytes of untreated animals, whereas under TRP601 or QV-D-oph treatment Ca^2+ release was unaffected. C. Altered Ca^2+ transient kinetics in vehicle-treated animal are accompanied by a decrease in sarcoplasmic reticulum Ca^2+ load (estimated by application of 10 mM caffeine). […] (*p<0.05 compared to sham-operated animals, n≧5 animals).

TNFα, IL1β, IL10 = experiment: Multiplex assay (Luminex) of circulating cytokines after ischemia-reperfusion; type: in vivo, rat; settings: IR model; for circulating level of TNFα: injected 15 min prior to the reperfusion, compared to sham-operated; for IL-1β elevation / IL-10 elevation: within the first 24 hours of reperfusion
Procedure: Another series of experiments was conducted in the rat model of ischemia-reperfusion. Ischemia and reperfusion is well known to trigger an acute inflammatory process in animal model as well as in human. In our rat model, at the euthanasia, blood sample were collected in order to measure the inflammatory response on sera. This was performed by multiplex assay (Luminex technology). Three parameters were simultaneously measured at various time after myocardial reperfusion the pro inflammatory cytokines TNFα and IL1β as well as the anti-inflammatory cytokine IL10. […] B-C. […] In summary, caspase 2 inhibition prevents the acute inflammatory response occurring during the first 24 hours after myocardial reperfusion. *p<0.05 compared to sham-operated animals, n≧5 animals.

caspase-2 = target: T1, caspase-2 (Rattus norvegicus, UniProt P55215); experiment: Dosage of caspase-2 activity in myocardial tissue, chronic ischemia (PMI) model; type: in vivo; settings: PMI 72 h; for caspase-2 activity: pre-treated rats, left ventricle (VG) and septum, 1 mg/kg
T1 construct: Each fragment of tissue was rapidly frozen in liquid nitrogen and kept at −80° C; from tissue; host or cells: rat myocardium (left ventricle, right ventricle, septum, apex) extracts
T1 sequence (P55215 170-325 limits assumed): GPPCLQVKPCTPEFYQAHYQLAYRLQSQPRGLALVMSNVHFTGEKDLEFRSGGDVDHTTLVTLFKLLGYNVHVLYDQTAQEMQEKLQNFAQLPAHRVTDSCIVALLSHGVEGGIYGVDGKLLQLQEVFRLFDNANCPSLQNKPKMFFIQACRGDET
T1 sequence (P55215 348-452 limits assumed): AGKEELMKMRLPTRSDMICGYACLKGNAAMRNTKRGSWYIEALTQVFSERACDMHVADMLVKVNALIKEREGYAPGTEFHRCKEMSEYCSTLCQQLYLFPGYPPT

caspase-3 = target: T2, caspase-3 (Rattus norvegicus, UniProt P55213); experiment: Dosage of caspase-3 activity in myocardial tissue, reperfusion ischemia (IR) model; type: in vivo; settings: administered 15 min before the reperfusion, VGZI, VD, Apex and VGZNI
T2 construct: from tissue; host or cells: rat myocardium (left ventricle, right ventricle, septum, apex) extracts
T2 sequence (P55213 29-175 limits assumed): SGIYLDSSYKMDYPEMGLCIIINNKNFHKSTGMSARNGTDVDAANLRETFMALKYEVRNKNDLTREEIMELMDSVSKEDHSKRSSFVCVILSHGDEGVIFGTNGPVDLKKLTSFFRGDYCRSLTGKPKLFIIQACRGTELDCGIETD
T2 sequence (P55213 176-277 limits assumed): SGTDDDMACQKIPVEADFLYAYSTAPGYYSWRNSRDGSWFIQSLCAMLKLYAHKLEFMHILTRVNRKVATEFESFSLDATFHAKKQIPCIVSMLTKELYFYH
Procedure: The analyses were performed on 2 myocardial ischemia models: a chronic ischemia model and an acute ischemia model, followed by myocardial reperfusion after 30 min of occlusion.
Said models were realized with Wistar male rats (180-220 g). The coronary artery was ligatured according to Pfeffer et al protocol.
Briefly, the rats were anaesthetized by intraperitoneal administration of a mixture of Ketamine (150 mg/kg) and Xylazine (15 mg/kg), then intubated and mechanically ventilated. The animals were submitted to a left and median thoracotomy. An occlusion of the coronary artery was done with a silk wire (size: 7.0) at the more proximal point and below the auricle.
In the case of reperfusion ischemia model (IR model), the silk wire was untied after 30 min of occlusion. The artery was then cleared and the myocardial territory reperfused. The control animals (sham operated) were submitted to the same surgery protocol as the above animals, but the silk wire was passed under the coronary without making any ligature.
The animals were sacrificed by a pentobarbital lethal injection. The heart was excised and perfused about 5 min by Langerdorf reverse way using a calcium-free washing solution (in mM: NaCl 117 mM, KCl 5.7, NaHCO3 4.4, KH2PO4 1.5, MgCl2 1.7, HEPES 21, glucose 11, taurine 20, pH 7.2 adjusted with NaOH). The heart was then placed into a dissection tank and the different myocardial territories were taken (i.e. right ventricle (VD), septum, Apex, left ventricle (selectively in infarcted area (VGZI) and non-infarcted area (VGZNI)). Each fragment of tissue was rapidly frozen in liquid nitrogen and kept at −80° C.
Each tissue was then thawed and about 1-2 mm^3 was taken. […]
The supernatant was taken and divided into 2 tubes for of each sample. The tubes were placed at −80° C. before performing the spectrophotometric proteic dosage (BCA: cupper (II) sulphate+solution A of bicinchronic acid, DO measured at 550 nm) in transparent, with flat bottom, 96-well plates. […]

SMILES | Ca2+ release kinetics (amplitude/time to peak ratio) [1] | cell shortening [1] | sarcoplasmic reticulum Ca2+ load [1] | amplitude of cytosolic Ca2+ transients [1] | circulating level of TNFα (TNFα, IL1β, IL10) | IL-1β elevation (TNFα, IL1β, IL10) | IL-10 elevation (TNFα, IL1β, IL10) | caspase-2 activity (caspase-2) | caspase-3 activity (caspase-3) | caspase-3 activity (caspase-3; listed as QVDOPH) | caspase-2 basal activity (caspase-2; right ventricular (RV))
CC(C)[C@H](NC(=O)c1ccc2ccccc2n1)C(=O)N[C@@H](CC(=O)O)C(=O)COc1c(F)cccc1F [Q-VD-OPH] | unaffected | avoided cell shortening decreasing | not significantly different | unchanged | not significantly different | prevented | prevented | inhibited | inhibits the activity of both caspases | normalization of the activity | –
COC(=O)CC(NC(=O)[C@H](C)NC(=O)[C@@H](NC(=O)[C@H](CC(=O)OC)NC(=O)[C@@H](NC(=O)c1ccc2ccccc2n1)C(C)C)C(C)C)C(=O)COc1c(F)cccc1F (stereo partly drawn) [D1, (3S,6S,9S,12S)-methyl 15-(2-(2,6-difluorophenoxy)acetyl)-3,9-diisopropyl-6-(2-methoxy-2-oxoethyl)-12-methyl-1,4,7,10,13-pentaoxo-1-(quinolin-2-yl)-2,5,8,11,14-pentaazaheptadecan-17-oate] (Quinaldoyl-VD(OMe)VA-X1) | unaffected | avoided cell shortening decreasing | not significantly different | unchanged | not significantly different | prevented | prevented | inhibited | normalization of the activity; also recorded: prevents the further activation | – | weak inhibition

Source: patent publication US20100184703A1, “USE OF PEPTIDE DERIVATIVES FOR TREATING PATHOLOGIES RESULTING FROM ISCHEMIA” (CHIESI FARMACEUTICI S.p.A., priority 2007, published 2010)
